Assay results published in PMC9551036, “A selective and orally bioavailable VHL-recruiting PROTAC achieves SMARCA2 degradation in vivo” (Nature Communications, 2022).
Where “and” joins values, the source holds several entries; their conditions need not be identical. Equal values may be shown once. Read-outs that look alike come from different tables or passages of the source.

Assays:
[1] = molecular target: SMARCA2 (Homo sapiens, UniProt P51531); experiment: Ex vivo human whole blood assay, SMARCA2; assay type: cell-based; parameters: endogenous in cells; conditions: for HillSlope (best-fit value) / DC50: four-parameter fit; for Bottom (best-fit value) / Span (best-fit value) / Top (best-fit value): four-parameter fit of % protein remaining; for DC50: read-out: EC50 (best-fit value); for LogEC50 (best-fit value): log10 of concentration (mol/l)
Chain of SMARCA2 (P51531 whole entry): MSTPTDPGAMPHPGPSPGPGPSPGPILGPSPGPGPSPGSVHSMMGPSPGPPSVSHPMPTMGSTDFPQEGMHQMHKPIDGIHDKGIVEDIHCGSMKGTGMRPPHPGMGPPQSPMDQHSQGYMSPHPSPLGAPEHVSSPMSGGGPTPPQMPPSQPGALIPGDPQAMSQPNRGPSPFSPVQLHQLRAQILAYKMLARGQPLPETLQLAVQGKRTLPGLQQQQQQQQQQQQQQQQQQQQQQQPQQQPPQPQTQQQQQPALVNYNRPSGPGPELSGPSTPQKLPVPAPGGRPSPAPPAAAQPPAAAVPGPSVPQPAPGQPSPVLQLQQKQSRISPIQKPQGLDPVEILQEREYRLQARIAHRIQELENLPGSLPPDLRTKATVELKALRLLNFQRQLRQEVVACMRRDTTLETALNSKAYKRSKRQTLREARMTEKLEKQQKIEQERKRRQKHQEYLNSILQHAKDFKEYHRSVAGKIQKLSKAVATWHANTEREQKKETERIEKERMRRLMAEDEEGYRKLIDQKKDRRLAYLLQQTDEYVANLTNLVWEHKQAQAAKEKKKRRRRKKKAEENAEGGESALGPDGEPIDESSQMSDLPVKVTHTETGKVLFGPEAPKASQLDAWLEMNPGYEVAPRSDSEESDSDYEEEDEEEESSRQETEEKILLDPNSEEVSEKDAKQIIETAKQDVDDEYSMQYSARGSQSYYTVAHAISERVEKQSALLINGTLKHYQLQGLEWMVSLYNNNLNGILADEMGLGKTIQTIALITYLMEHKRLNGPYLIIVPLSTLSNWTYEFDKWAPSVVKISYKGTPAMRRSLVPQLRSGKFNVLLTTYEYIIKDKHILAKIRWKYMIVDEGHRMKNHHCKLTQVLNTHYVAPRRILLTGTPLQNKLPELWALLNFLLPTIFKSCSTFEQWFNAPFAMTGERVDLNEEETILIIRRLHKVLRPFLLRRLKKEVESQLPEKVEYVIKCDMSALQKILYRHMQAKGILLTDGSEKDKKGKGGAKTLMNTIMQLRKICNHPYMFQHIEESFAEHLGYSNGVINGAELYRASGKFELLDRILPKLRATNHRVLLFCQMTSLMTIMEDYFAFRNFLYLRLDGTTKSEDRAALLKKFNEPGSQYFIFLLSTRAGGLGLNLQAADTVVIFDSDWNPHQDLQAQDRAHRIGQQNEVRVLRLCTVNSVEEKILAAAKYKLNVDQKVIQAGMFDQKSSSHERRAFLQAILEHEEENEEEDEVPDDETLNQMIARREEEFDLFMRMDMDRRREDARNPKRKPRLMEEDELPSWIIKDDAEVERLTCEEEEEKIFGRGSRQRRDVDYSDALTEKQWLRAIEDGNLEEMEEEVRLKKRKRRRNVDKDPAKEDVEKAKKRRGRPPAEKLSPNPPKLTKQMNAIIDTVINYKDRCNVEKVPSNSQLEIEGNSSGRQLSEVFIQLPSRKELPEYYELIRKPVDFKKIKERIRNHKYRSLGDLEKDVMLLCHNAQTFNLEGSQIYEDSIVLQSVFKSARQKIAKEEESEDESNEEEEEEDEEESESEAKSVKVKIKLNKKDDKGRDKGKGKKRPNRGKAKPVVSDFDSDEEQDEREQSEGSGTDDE
Experimental: The assay was performed on human whole blood from three healthy donors, purchased from the Austrian Red Cross who always obtain samples under informed consent. […] Samples were pivoted at room temperature for 18 h in the dark. Subsequently, peripheral blood mononucleated cells (PBMCs) were isolated from individual aliquots using SepMate Tubes (StemCell) and Lymphoprep (StemCell) medium according to the manufacturer’s instructions and protein lysates were prepared using MSD Lysis buffer (Mesocale Discovery) supplemented with 1:100 Halt Phosphatase-Protease Inhibitor Cocktail (Thermo Fisher), 0.5 µl/ml benzonase (Novagen) and 10 mM DTT. SMARCA2 and SMARCA4 protein levels were determined using capillary electrophoresis (Bio-Techne) according to manufacturer’s instructions. Incubation with primary antibodies for SMARCA2 (Cell Signalling #11966 clone D9E8B RRID:AB_2797783 1:25), SMARCA4 (Abcam #ab110641 clone EPNCIR111A RRID:AB_10861578 1:25) and GAPDH (Abcam, #ab9485 RRID:AB_307275 1:1000) were performed for 30 min.

[2] = molecular target: SMARCA4 (Homo sapiens, UniProt P51532); experiment: SMARCA4 capillary electrophoresis protein assay in other cell lines (HCT116, LU99, HCC-364, HCT-15, HCC4006, SK-N-AS); assay type: cell-based; parameters: endogenous in cells; host or cells: RKO, HCT116, LU99, HCC-364, HCT-15, HCC4006, SK-N-AS; conditions: HCC4006_SM4
Chain of SMARCA4 (P51532 whole entry): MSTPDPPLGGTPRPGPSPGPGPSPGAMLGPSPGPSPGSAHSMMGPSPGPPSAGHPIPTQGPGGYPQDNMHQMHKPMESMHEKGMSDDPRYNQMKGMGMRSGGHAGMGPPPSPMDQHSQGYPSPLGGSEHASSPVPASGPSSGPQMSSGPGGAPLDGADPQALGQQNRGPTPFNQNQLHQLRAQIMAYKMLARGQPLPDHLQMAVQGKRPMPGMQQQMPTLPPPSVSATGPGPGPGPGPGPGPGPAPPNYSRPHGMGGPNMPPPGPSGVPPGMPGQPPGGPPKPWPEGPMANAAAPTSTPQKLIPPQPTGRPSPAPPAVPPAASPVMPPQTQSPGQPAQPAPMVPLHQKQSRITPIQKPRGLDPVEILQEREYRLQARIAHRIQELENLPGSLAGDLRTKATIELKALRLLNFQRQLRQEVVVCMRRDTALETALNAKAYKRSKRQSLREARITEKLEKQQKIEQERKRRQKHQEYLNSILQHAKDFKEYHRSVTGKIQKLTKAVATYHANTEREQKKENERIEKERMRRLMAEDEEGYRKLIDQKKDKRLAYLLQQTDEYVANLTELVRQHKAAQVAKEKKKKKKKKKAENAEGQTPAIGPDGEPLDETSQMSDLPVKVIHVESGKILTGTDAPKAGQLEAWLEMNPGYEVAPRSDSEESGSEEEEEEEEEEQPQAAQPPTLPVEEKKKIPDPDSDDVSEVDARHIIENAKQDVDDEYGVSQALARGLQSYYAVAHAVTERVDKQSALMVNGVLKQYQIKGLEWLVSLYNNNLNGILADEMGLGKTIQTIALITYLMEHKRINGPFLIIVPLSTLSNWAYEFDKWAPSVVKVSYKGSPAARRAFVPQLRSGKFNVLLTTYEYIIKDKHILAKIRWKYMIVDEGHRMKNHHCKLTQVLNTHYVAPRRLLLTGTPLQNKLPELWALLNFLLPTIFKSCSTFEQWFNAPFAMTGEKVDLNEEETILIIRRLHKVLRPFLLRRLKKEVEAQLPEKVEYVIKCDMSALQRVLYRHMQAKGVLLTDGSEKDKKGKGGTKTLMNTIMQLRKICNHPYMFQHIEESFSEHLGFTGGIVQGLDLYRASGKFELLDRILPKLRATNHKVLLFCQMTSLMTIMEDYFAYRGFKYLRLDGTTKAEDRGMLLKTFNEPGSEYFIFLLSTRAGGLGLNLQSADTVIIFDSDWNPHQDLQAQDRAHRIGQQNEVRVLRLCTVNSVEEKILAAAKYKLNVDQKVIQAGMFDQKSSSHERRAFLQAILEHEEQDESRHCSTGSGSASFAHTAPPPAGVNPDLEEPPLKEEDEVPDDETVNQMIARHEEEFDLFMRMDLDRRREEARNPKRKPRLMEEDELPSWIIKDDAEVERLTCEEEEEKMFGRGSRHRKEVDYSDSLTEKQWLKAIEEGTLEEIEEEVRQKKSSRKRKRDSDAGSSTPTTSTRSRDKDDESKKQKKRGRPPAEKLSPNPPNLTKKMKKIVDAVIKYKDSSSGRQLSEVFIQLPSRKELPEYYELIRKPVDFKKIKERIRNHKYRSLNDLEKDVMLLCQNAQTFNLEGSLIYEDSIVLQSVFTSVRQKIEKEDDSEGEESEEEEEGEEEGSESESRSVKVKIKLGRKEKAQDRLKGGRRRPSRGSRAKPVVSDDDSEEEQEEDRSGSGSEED
Experimental: 130,000–200,000 cells were seeded in 24-well plates and incubated until settled down or overnight. Compounds were dissolved in DMSO and added to cells in indicated concentrations using a digital dispenser following an optional media change. […] For SMARCA2/4 half-life determination, 150,000 or 200,000 cells were seeded in 24-well plates. […] For SMARCA2/4 re-synthesis measurements, 200,000 cells were seeded in 24-well plates. […] Medium was removed, cells were washed with PBS and lysed with 80 µl Lysis Buffer (MSD Tris Lysis Buffer (#R60TX-2) + Halt Inhibitor Cocktail (100x) + Benzonase 0.5 µL/ml). Samples were frozen at −80 °C and thawed at room temperature before use. Samples were transferred to a V-bottom plate and insoluble debris was pelleted by centrifugation for 5 min at maximum speed. The supernatant was transferred to a fresh plate. Master Mix and Ladder were prepared according to manufacturer’s instructions for 12–230 kDa Wes Separation Module, 8 × 25 capillary cartridges, Protein Simple #SM-W004 with Anti-Rabbit Detection Module for Wes, Peggy Sue or Sally Sue, Protein Simple #DM-001. 4.8 µl lysate were mixed with 1.2 µl Master Mix to achieve a protein concentration of ~0.5 µg/µl. […] Wes plates were prepared and run according to manufacturer’s instructions. Proteins were quantified with accompanying Compass Software. SMARCA2/4 protein levels were normalised to GAPDH. […] Where applicable, curves were fitted using a 4-parametric logistic model.

SMILES: Cc1ncsc1-c1ccc(C(CCC(C)CCN2CCC(c3ccc4c(c3)n(C3CCCC3)c3nc(=O)c5c(Br)cccc5n43)CC2)NC(=O)C2CC(O)CN2C(=O)C(NC(=O)C2(F)CC2)C(C)(C)C)cc1 (centres unmarked) [ACBI2]
- % protein remaining, SMARCA2 ([1]; Donor 1, log10[concentration (mol/l)] -6): 7.774% and 7.336% and 6.483%
- % protein remaining, SMARCA2 ([1]; Donor 1, log10[concentration (mol/l)] -6.47712): 27.8553% and 21.8081% and 18.9544%
- % protein remaining, SMARCA2 ([1]; Donor 1, log10[concentration (mol/l)] -6.95424): 43.7755% and 37.877% and 37.8583%
- % protein remaining, SMARCA2 ([1]; Donor 1, log10[concentration (mol/l)] -7.43136): 67.8936% and 57.3294% and 53.6432%
- % protein remaining, SMARCA2 ([1]; Donor 1, log10[concentration (mol/l)] -7.90848): 91.2009% and 93.1862% and 66.2599%
- % protein remaining, SMARCA2 ([1]; Donor 1, log10[concentration (mol/l)] -8.38561): 88.6362% and 87.296% and 66.0015%
- % protein remaining, SMARCA2 ([1]; Donor 1, log10[concentration (mol/l)] -8.86273): 73.7554% and 107.064% and 91.2397%
- HillSlope (best-fit value) ([1]; Donor 1 SMARCA2): -0.8748
- Bottom (best-fit value) ([1]; Donor 1 SMARCA2): -2.012%
- Span (best-fit value) ([1]; Donor 1 SMARCA2): 93.51%
- Top (best-fit value) ([1]; Donor 1 SMARCA2): 91.5%
- DC50 ([1]; Donor 1 SMARCA2): 91.1 nM
- LogEC50 (best-fit value) ([1]; Donor 1 SMARCA2): -7.04
- % protein remaining, SMARCA2 ([1]; Donor 2, log10[concentration (mol/l)] -6): 7.351% and 9.811% and 14.3342%
- % protein remaining, SMARCA2 ([1]; Donor 2, log10[concentration (mol/l)] -6.47712): 29.8249% and 32.3978% and 22.5296%
- % protein remaining, SMARCA2 ([1]; Donor 2, log10[concentration (mol/l)] -6.95424): 46.7755% and 52.5543% and 72.1634%
- % protein remaining, SMARCA2 ([1]; Donor 2, log10[concentration (mol/l)] -7.43136): 100.769% and 75.1426% and 71.9733%
- % protein remaining, SMARCA2 ([1]; Donor 2, log10[concentration (mol/l)] -7.90848): 102.968% and 75.392% and 80.5753%
- % protein remaining, SMARCA2 ([1]; Donor 2, log10[concentration (mol/l)] -8.38561): 67.4421% and 97.2734% and 86.3024%
- % protein remaining, SMARCA2 ([1]; Donor 2, log10[concentration (mol/l)] -8.86273): 85.0643% and 65.7852% and 85.6876%
- HillSlope (best-fit value) ([1]; Donor 2 SMARCA2): -1.742
- Bottom (best-fit value) ([1]; Donor 2 SMARCA2): 8.097%
- Span (best-fit value) ([1]; Donor 2 SMARCA2): 75.81%
- Top (best-fit value) ([1]; Donor 2 SMARCA2): 83.91%
- DC50 ([1]; Donor 2 SMARCA2): 172 nM
- LogEC50 (best-fit value) ([1]; Donor 2 SMARCA2): -6.765
- % protein remaining, SMARCA2 ([1]; Donor 3, log10[concentration (mol/l)] -6): 11.0787% and 14.9408% and 20.3816%
- % protein remaining, SMARCA2 ([1]; Donor 3, log10[concentration (mol/l)] -6.47712): 32.5224% and 22.883% and 24.5065%
- % protein remaining, SMARCA2 ([1]; Donor 3, log10[concentration (mol/l)] -6.95424): 43.403% and 45.8346% and 34.6157%
- % protein remaining, SMARCA2 ([1]; Donor 3, log10[concentration (mol/l)] -7.43136): 68.0983% and 70.9906% and 84.1093%
- % protein remaining, SMARCA2 ([1]; Donor 3, log10[concentration (mol/l)] -7.90848): 97.8509% and 97.5546% and 65.5857%
- % protein remaining, SMARCA2 ([1]; Donor 3, log10[concentration (mol/l)] -8.38561): 73.4464% and 119.725% and 73.7076%
- % protein remaining, SMARCA2 ([1]; Donor 3, log10[concentration (mol/l)] -8.86273): 88.433% and 116.976% and 110.86%
- HillSlope (best-fit value) ([1]; Donor 3 SMARCA2): -0.9991
- Bottom (best-fit value) ([1]; Donor 3 SMARCA2): 9.358%
- Span (best-fit value) ([1]; Donor 3 SMARCA2): 92.07%
- Top (best-fit value) ([1]; Donor 3 SMARCA2): 101.4%
- DC50 ([1]; Donor 3 SMARCA2): 70.3 nM
- LogEC50 (best-fit value) ([1]; Donor 3 SMARCA2): -7.153
- SMARCA2 degradation in human whole blood ([1]; three healthy donors, 18 h): significant degradation of SMARCA2
- Bottom (best-fit value, % protein remaining) ([2]; four-parameter fit): 9.858%
- % protein remaining ([2]; log10[concentration (mol/l)] -6): 8.466% and 14.8549% and 6.254%
- % protein remaining ([2]; log10[concentration (mol/l)] -8): 107.17% and 168.214% and 84.8869%
- % protein remaining ([2]; log10[concentration (mol/l)] -10): 87.4945% and 108.459% and 92.3747%
